Patent US7932239B2, “Methods of and compositions for reducing neuronal cell death” (Wisconsin Alumni Research Foundation, priority 2005, dated 2011)

Legend:
[1] = test system: retinal ganglion cells (RGCs); assay: Viability of acutely axotomized retinal ganglion cells in culture (DAPI retrograde labeling, calcein-AM staining) at 72 hours; format: cell-based, rat; settings: for rescue of RGCs (in words): at 100 μM
Description: DAPI binds to nuclear DNA and fluoresces under UV light. At postnatal days eleven to thirteen, the animals were sacrificed by decapitation, the eyes enucleated, and the retinas dissected in Hank's balanced salt solution (HBSS). After two incubations in enzyme solution containing papain (3.7 U/ml), each for 30 minutes at 37° C., the retinas were gently triturated with a Pasteur pipette and plated on poly-L-lysine-coated 96-well flat-bottomed tissue culture plates (0.32 cm^2 surface area/well) at a density of approximately 2000 cells/mm^2. The cells were cultured for 72 hours in Neurobasal-A, B27 supplement lacking antioxidants in a humidified 5% CO2 incubator at 37° C.
Retinal Ganglion Cell Identification and Counting: RGCs were identified by the presence of DAPI, which appears blue when viewed with appropriate filters under epifluorescence. Cell viability was determined by metabolism of calcein-AM, which produces a green fluorescence when viewed with fluorescein filters. Cells were incubated in a 1 μM solution of calcein-AM in phosphate-buffered saline (PBS) for 30 minutes, after which the medium was replaced with fresh PBS. Wells were counted in duplicate or in triplicate.
Statistical Analysis: All RGC viability calculations were normalized to the control (no treatment) condition by dividing the mean number of living RGCs in an experimental condition by the mean in controls. Comparisons were by unpaired t-test.

[2] = test system: retinal ganglion cells (RGCs); settings: previous studies, cited from earlier work
RGCs [3] = settings: after one to twelve weeks; written in present tense
Description: Unilateral experimental glaucoma is induced in the rat using the Quigley protocol for laser ablation of the trabecular meshwork and of the circumferential episcleral vessels. […] The animals are anesthetized as in Example 2. A diode laser at 532 nm (0.2-0.4 watts and 0.3-0.7 second duration, depending on degree of pigmentation) is used to administer laser treatment at the trabecular meshwork and at the episcleral veins draining the perilimbal vessel plexus of vessel. In case a milder IOP rise is required, animals can be treated only at the trabecular meshwork. The laser treatment is repeated at 1 week if the IOP difference between the treated eye and the untreated eye is less than 6 mm Hg. Following laser treatment, sterile drug (i.e. PB1 or PB2) or control (BSS) is administered.
IOP is measured by putting a drop of 0.5% proparacaine in the eye, gently cradling the rat and touching the anesthetized eye with a Tonopen tonometer tip for a fraction of a second, usually for 3±2 times, more if the standard deviation is high. […] Depending on the experiment, the IOP is initially measured daily and then weekly.
After one to twelve weeks animals are sacrificed and RGC counts are performed as described in Example 2.

RGCs [4] = assay: RGC death after optic nerve crush in vivo, intravitreal injection, RGC density in retinal whole mounts; parameters: species or system rat; settings: 7 to 14 days after optic nerve crush, written in present tense
Description: Optic Nerve Crush Surgery and Intravitreal Injections: Surgeries are conducted on adult (i.e. eight to twelve week old) rats that have previously received 1,1′-dioctadecyl-3,3,3′,3′-tetramethylindocarbocyanine (DiI) injections. All surgeries are done aseptically and are performed on the left eye only. Animals are anesthetized with a mixture of ketamine and xylazine. A limited lateral canthotomy is performed. The conjunctiva is then incised at the limbus and the subtenons space bluntly dissected posteriorly. […] The muscle cone is then entered and the optic nerve exposed. A longitudinal incision is made along the meningeal sheath to expose the optic nerve axons and to avoid disturbing the retinal blood supply. The axons of the optic nerve are then crushed with blunt forceps for 5 seconds 2 mm posterior to the globe under direct visualization. […]
RGC Density Determination: Retinal wholemounts are imaged with an Axiocarn HRc digital camera attached to a Zeiss Axiophot fluorescent microscope. […] The density of RGCs/mm^2 is determined by counting labeled DiI cells in three areas per retinal quadrant at three different eccentricities of the retinal radius for a total of twelve regions per retina. Cells positive for both DiI and BSL-I, as determined by bright yellow labeling when DiI (red) and BSL-I (green) images are merged, are subtracted from the total DiI count. […]

RGCs [5] = settings: injected intravitreally into adult rats, previous studies; cited from earlier work
[6] = at 1 μM and 100 μM, 72 hours, p<0.05

O=S(=O)([O-])c1cccc(P(c2cccc(S(=O)(=O)[O-])c2)c2cccc(S(=O)(=O)[O-])c2)c1.[Na+].[Na+].[Na+] [3BSA, 3,3′,3″-phosphinidynetris(benzene-sulfonic acid) trisodium salt]
relative RGC survival (compared to control) ([1]; 100 μM, 72 hours): 206±6%
rescue of RGCs (in words) ([1]; 72 hours): rescue RGCs

O[C@H](CS)[C@H](O)CS (racemic) [DTT, dithiothreitol]
effectiveness at nanomolar concentrations (in words) [2]: not effective

O=C(O)c1ccccc1P(c1ccccc1)c1ccccc1 [2DPBA, 2-(diphenylphosphino)benzoic acid]
relative RGC survival (compared to control) ([1]; 10 nM, 72 hours): 216±18%
neuroprotection of RGCs (in words) [1, 6]: significant protection
concentration at which neuroprotective for RGCs (lowest) ([1]; dose response, 72 hours): 10 nM

O=C(O)c1ccc(P(c2ccccc2)c2ccccc2)cc1 [4DPBA, 4-(diphenylphosphino)benzoic acid]
relative RGC survival (compared to control) ([1]; 1 μM, 72 hours): 183±19%
neuroprotection of RGCs (in words) [1, 6]: neuroprotection

[BH3-][P+](CCC(=O)OC)(CCC(=O)OC)c1ccccc1 [PB1, bis(3-propionic acid methyl ester)phenylphosphine borane complex]
RGC cell death compared to controls (in words) (RGCs [3]): attenuated
relative RGC survival (compared to control) ([1]; 1 nM, 72 hours after axotomy): 174±12%
neuroprotection of RGCs (in words) ([1]; at picomolar concentrations, 72 hours): highly effective
concentration at which neuroprotective for RGCs (lowest) ([1]; dose response, 72 hours): ≥ 1 nM
RGC density compared to controls (in words) (RGCs [4]): greater RGC density

O=C(O)CCP(CCC(=O)O)CCC(=O)O [TCEP, tris-(2-carboxyethyl) phosphine]
rescue of RGCs (in words) ([1]; 72 hours): mildly rescued RGCs
RGC death after optic nerve crush (in words) (RGCs [5]): inhibited RGC death
effectiveness at nanomolar concentrations (in words) [2]: not effective
concentration required for RGC neuroprotection [2]: ~100 µM

[BH3-][P+](CCC(=O)OC)(c1ccccc1)c1ccccc1 [PB2, (3-propionic acid methyl ester)diphenylphosphine borane complex]
RGC cell death compared to controls (in words) (RGCs [3]): attenuated
relative RGC survival (compared to control) ([1]; 10 pM, 72 hours after axotomy): 180±10%
concentration at which neuroprotective for RGCs (lowest) ([1]; dose response 1 pM to 100 μM, 72 hours): ≥ 0.01 nM
RGC density compared to controls (in words) (RGCs [4]): greater RGC density
